Laboratory results as given in ChEMBL document CHEMBL1137981, “Identification and specificity studies of small-molecule ligands for SH3 protein domains” (J Med Chem, 2004).

Tests used:
[1] = Ionization constant (pKa) for the compound; assay type: physicochemical
[2] = biological target: T1, Tyrosine-protein kinase TEC (Mus musculus, UniProt Q8CFK4); assay: Binding affinity to mouse Tec kinase SH3 domain by NMR chemical shift perturbation
T1 sequence (Q8CFK4 whole entry): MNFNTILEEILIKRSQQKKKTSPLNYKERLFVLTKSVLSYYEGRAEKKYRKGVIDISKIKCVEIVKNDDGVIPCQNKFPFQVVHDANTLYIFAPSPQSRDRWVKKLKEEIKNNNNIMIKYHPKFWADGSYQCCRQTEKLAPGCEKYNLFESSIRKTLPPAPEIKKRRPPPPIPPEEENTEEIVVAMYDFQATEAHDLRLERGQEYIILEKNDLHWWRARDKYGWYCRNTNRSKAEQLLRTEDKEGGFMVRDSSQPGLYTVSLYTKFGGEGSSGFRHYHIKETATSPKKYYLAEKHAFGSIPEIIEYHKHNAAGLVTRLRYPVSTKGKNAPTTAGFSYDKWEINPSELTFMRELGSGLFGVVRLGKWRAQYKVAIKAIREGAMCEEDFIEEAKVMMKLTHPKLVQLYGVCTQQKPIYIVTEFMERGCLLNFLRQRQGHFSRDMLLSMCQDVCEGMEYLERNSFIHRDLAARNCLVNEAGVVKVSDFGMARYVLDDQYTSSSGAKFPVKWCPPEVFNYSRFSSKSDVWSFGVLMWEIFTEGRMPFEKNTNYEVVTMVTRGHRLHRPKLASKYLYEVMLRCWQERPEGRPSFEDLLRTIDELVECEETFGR

[3] = biological target: SH2/SH3 adapter protein NCK1 (Homo sapiens, UniProt P16333); assay: Displacement of PRP-1 peptide from human Nck […] SH3 domain by fluorescence polarization
[4] = biological target: T1, Tyrosine-protein kinase TEC; assay: Displacement of PRP-1 peptide from mouse Tec kinase SH3 domain by fluorescence polarization
[5] = biological target: T1, Tyrosine-protein kinase TEC; assay: Binding affinity to mouse Tec kinase SH3 domain by NMR chemical shift perturbation; No binding
[6] = biological target: T1, Tyrosine-protein kinase TEC; assay: as above; remark: listed apart in the source
[7] = biological target: T1, Tyrosine-protein kinase TEC; assay: Displacement of PRP-1 peptide from mouse Tec kinase SH3 domain by fluorescence polarization; No competition

| Kd [2] [µM] | EC50 [4] [µM] | Structure (SMILES) | other results |
| --- | --- | --- | --- |
|  |  | Nc1ncc2ccccc2n1 | pKa [1]: 4.82 |
| 61 | 75 | Cc1ccc2nc(N)ccc2c1 | EC50 [3]: 90 µM |
|  |  | Nc1ncccn1 | pKa [1]: 3.54; Kd [5]: Not Active |
| 380 |  | CNc1ccc2ccccc2n1 |  |
|  | 63 | COc1ccc2nc(N)ccc2c1 |  |
|  |  | c1ccc2ncccc2c1 [QUINOLINE] | Kd [6]: Not Active |
|  | 76 | Nc1ccc2cc(Cl)ccc2n1 |  |
| 40 | 34 | Nc1ccc2cc(C3OCCO3)ccc2n1 | EC50 [3]: 300 µM |
|  |  | Nc1ccc2cccc(O)c2n1 | EC50 [7]: Not Active |
|  |  | Nc1ccc2ccccc2c1 [NAPHTHYLAMINE] | Kd [6]: Not Active |
| 22 |  | CC1(C)COC(c2ccc3nc(N)ccc3c2)OC1 |  |
|  |  | O=c1ccc2ccccc2[nH]1 | Kd [6]: Not Active |
|  | 150 | Nc1ccc2cc(F)ccc2n1 |  |
|  | 58 | Nc1ccc2cc(Br)ccc2n1 |  |
|  |  | CC(=O)Nc1ccc2ccccc2n1 | Kd [6]: Not Active |
| 52 | 26 | Nc1ccc2cc(C3OCCCO3)ccc2n1 | EC50 [3]: > 500 µM |

| Structure (SMILES) | Kd [2] [µM] | EC50 [4] [µM] | other results |
| --- | --- | --- | --- |
| Nc1ccccn1 [2-AMINOPYRIDINE] | > 4000 |  |  |
